Like-named read-outs stand apart in the source and are kept apart here.
Columns and labels:
Colo205 cells = test: Colo205 cell proliferation, 3H thymidine incorporation; type: cell-based; conditions: Homo sapiens
Experimental: Colo205 cells were seeded in 96 well plates and serially diluted compound was added to the wells in duplicate. Control groups included untreated cells, the compound diluent (0.1% DMSO alone) and culture medium without cells.
To measure proliferation, 3 h prior to the end of the experiment 0.5 μCi of 3H thymidine was added to each well. Cells were then harvested and the incorporated radioactivity counted on a Wallac microplate beta-counter. Cell viability was assessed using Promega CellTiter 96AQ to measure MTS conversion. Dose response curves were calculated using either Prism 3.0 (GraphPad) or SoftMax Pro 4.3.1 LS (Molecular Devices) software.

JAK-2 = JAK-2 (Homo sapiens, UniProt O60674); test: JAK2 inhibition assay; type: biochemical; conditions: 12 μM ATP
Chain of JAK-2 (O60674 whole entry, species assumed): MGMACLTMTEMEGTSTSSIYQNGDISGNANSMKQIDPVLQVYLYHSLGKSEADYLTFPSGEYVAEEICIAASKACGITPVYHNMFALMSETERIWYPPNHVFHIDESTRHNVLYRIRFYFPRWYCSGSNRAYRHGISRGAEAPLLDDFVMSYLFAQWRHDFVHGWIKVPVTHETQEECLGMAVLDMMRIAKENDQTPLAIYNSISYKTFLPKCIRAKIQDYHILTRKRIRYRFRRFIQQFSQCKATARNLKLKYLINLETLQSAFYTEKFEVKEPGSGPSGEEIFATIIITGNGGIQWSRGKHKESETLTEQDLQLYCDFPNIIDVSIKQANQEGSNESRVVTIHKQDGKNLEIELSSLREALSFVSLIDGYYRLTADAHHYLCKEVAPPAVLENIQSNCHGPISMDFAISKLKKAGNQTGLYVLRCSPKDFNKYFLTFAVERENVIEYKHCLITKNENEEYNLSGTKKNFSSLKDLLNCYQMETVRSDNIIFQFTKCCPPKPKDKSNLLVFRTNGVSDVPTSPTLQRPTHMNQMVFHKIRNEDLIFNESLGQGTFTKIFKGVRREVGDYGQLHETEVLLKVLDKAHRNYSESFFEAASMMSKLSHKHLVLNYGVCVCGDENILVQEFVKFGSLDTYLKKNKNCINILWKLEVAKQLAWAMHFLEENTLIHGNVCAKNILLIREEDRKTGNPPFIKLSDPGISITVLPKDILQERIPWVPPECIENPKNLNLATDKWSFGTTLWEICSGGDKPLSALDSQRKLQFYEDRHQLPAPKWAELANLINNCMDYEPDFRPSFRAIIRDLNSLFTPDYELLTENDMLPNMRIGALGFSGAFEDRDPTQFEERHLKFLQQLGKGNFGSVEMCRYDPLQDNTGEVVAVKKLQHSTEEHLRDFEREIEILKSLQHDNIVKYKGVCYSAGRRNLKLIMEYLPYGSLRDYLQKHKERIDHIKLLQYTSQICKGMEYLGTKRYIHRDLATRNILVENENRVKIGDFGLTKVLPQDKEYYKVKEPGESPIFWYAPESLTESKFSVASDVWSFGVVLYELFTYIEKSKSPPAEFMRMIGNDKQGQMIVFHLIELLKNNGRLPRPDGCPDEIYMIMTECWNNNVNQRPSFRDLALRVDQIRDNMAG

Aurora-2 (Aurora A) = molecular target: T1, Aurora-2 (Aurora A) (Homo sapiens, UniProt O14965); test: Aurora-2 (Aurora A) inhibition assay, coupled enzyme; type: biochemical
T1 sequence (O14965 1-403): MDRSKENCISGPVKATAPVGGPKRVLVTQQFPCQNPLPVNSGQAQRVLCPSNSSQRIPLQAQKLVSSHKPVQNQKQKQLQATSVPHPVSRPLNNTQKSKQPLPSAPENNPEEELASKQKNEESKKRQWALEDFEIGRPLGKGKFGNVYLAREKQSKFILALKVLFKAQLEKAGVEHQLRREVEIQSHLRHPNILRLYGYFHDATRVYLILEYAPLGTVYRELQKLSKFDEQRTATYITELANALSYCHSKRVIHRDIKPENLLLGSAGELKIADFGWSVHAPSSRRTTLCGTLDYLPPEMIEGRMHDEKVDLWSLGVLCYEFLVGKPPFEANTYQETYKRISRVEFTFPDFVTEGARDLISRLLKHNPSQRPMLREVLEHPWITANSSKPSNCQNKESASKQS
Experimental: Assays were carried out in a mixture of 100 mM Hepes (pH7.5), 10 mM MgCl2, 1 mM DTT, 25 mM NaCl, 2.5 mM phosphoenolpyruvate, 300 μM NADH, 30 μg/ml pyruvate kinase and 10 μg/ml lactate dehydrogenase. […] Assays were carried out at 30° C. and in the presence of 40 nM Aurora-2.
An assay stock buffer solution was prepared containing all of the reagents listed above, with the exception of Aurora-2 and the test compound of interest. […] The plate was preincubated for 10 minutes at 30° C. and the reaction initiated by addition of 10 μl of Aurora-2. Initial reaction rates were determined with a Molecular Devices SpectraMax Plus plate reader over a 10 minute time course. IC50 and Ki data were calculated from non-linear regression analysis using the Prism software package (GraphPad Prism version 3.0cx for Macintosh, GraphPad Software, San Diego Calif., USA).

JAK3 = molecular target: T2, JAK3 (Homo sapiens, UniProt P52333); test: JAK3 inhibition assay; type: biochemical
T2 sequence (P52333 1-1124): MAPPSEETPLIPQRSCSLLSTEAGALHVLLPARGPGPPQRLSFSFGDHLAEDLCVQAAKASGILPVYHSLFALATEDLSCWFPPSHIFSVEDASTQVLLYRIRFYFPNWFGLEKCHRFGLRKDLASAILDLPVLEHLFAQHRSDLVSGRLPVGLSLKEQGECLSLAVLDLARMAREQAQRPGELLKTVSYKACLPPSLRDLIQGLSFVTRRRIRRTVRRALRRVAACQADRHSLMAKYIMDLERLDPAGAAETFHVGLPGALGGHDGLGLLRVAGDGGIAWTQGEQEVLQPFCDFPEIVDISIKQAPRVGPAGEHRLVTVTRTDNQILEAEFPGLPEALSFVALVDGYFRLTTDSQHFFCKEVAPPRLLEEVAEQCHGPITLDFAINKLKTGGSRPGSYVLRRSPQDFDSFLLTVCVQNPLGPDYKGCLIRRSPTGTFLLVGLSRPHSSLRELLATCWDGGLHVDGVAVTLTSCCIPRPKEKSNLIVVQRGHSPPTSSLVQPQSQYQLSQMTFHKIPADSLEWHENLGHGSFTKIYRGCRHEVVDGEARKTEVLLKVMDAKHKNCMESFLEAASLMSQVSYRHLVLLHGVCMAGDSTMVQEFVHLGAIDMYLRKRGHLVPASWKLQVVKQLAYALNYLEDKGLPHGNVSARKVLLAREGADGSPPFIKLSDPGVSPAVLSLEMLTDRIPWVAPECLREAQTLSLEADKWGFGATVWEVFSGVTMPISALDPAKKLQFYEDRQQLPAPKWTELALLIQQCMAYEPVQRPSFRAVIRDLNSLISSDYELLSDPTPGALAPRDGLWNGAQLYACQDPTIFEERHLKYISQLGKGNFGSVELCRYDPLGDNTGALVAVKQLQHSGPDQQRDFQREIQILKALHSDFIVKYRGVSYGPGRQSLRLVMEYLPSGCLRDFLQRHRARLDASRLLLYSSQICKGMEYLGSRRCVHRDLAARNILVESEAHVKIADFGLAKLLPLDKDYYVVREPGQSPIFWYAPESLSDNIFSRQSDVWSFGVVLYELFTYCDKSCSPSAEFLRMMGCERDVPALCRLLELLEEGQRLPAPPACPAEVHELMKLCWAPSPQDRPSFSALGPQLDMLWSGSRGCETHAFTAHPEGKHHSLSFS
Experimental: Reactions were carried out in a kinase buffer containing 100 mM HEPES (pH 7.4), 1 mM DTT, 10 mM MgCl2, 25 mM NaCl, and 0.01% BSA. Substrate concentrations in the assay were 5 μM ATP (200 uCi/μmole ATP) and 1 μM poly(Glu)4Tyr. Reactions were carried out at 25° C. and 1 nM JAK3.
To each well of a 96 well polycarbonate plate was added 1.5 μl of a candidate JAK3 inhibitor along with 50 μl of kinase buffer containing 2 μM poly(Glu)4Tyr and 10 μM ATP. This was then mixed and 50 μl of kinase buffer containing 2 nM JAK3 enzyme was added to start the reaction. After 20 minutes at room temperature (25 C), the reaction was stopped with 50 μl of 20% trichloroacetic acid (TCA) that also contains 0.4 mM ATP. The entire contents of each well were then transferred to a 96 well glass fiber filter plate using a TomTek Cell Harvester. After washing, 60 μl of scintillation fluid was added and ^33P incorporation detected on a Perkin Elmer TopCount.

[1] = COLO 205, read-out: Colo205 inh 3H-Thy incorporation after 96 hours IC50 (uM)
[2] = 400 μM ATP, 40 nM Aurora-2, read-out: Aurora A Ki
[3] = COLO 205, read-out: Colo205 inh 3H-Thy incorporation after 72 hours IC50 (uM)

Row | Compound | IC50 (Colo205 cells; [1]) | Ki (JAK-2) | Ki (Aurora-2 (Aurora A); [2]) | Ki (JAK3) | IC50 (Colo205 cells; [3]) | Ki (Aurora-2 (Aurora A))
1 | Cc1cc(Nc2cc(N3CC(O)(C4CC4)C3)nc(Sc3ccc(NC(=O)C4CC4)cc3F)n2)[nH]n1 [Compound I-11, N-(4-((4-(3-methyl-1H-pyrazol-5-ylamino)-6-(3-cyclopropyl-3-hydroxyazetidin-1-yl)pyrimidin-2-yl)sulfanyl)-3-fluorophenyl)cyclopropanecarboxamide] | 0.028 µM | 15 nM | 0.41 nM | 56 nM |  | 
2 | Cc1cc(Nc2cc(N3CC(F)(C4CC4)C3)nc(Sc3ccc(NC(=O)C4CC4)cc3F)n2)n[nH]1 [Compound I-18] |  | 360 nM |  | 220 nM | 0.027 µM | 0.35 nM
3 | Cc1cc(Nc2cc(N3CC(O)(C4CC4)C3)nc(Sc3ccc(NC(=O)C4CC4(F)F)cc3)n2)[nH]n1 (stereo not drawn) [Compound I-12] |  | 2.9 nM | 0.35 nM | 28 nM | 0.019 µM | 
4 | Cc1cc(Nc2cc(N3CC(F)(C4CC4)C3)nc(Sc3ccc(NC(=O)CC4CC4)cc3)n2)[nH]n1 [Compound I-19] |  | 130 nM |  | 620 nM | 0.05 µM | 0.44 nM
5 | CCC(=O)Nc1ccc(Sc2nc(Nc3cc(C)n[nH]3)cc(N3CC(O)(C(C)C)C3)n2)cc1 [Compound I-5] | 0.033 µM | 26 nM | 1.2 nM | 100 nM |  | 
6 | Cc1cc(Nc2cc(N3CC(F)(C4CC4)C3)nc(Sc3ccc(NC(=O)C4CC4(F)F)cc3)n2)[nH]n1 (stereo not drawn) [Compound I-20] |  | 51 nM | 0.77 nM | 110 nM | 0.012 µM | 
7 | Cc1cc(Nc2cc(N3CC(O)(C4CC4)C3)nc(Sc3ccc(NC(=O)C4CC4)cc3)n2)n[nH]1 [Compound I-8] | 0.033 µM | 41 nM | 0.87 nM | 140 nM | 0.04 µM | 
8 | CCC(=O)Nc1ccc(Sc2nc(Nc3cc(C4CC4)[nH]n3)cc(N3CC(O)(C4CC4)C3)n2)cc1 [Compound I-7] | 0.022 µM | 23 nM |  | 37 nM |  | 0.36 nM
9 | Cc1cc(Nc2cc(N3CC(F)(C4CC4)C3)nc(Sc3ccc(NC(=O)CC(F)(F)F)cc3)n2)[nH]n1 [Compound I-14, N-(4-(4-(3-methyl-1H-pyrazol-5-ylamino)-6-(3-cyclopropyl-3-fluoroazetidin-1-yl)pyrimidin-2-ylthio)phenyl)-3,3,3-trifluoropropanamide] | 0.006 µM | 11 nM | 0.35 nM | 77 nM | 0.006 µM | 
10 | Cc1cc(Nc2cc(N3CC(F)(C4CC4)C3)nc(Sc3ccc(NC(=O)C4CC4)cc3)n2)n[nH]1 [Compound I-13] | 0.039 µM | 110 nM | 1.1 nM | 290 nM | 0.072 µM | 
11 | Cc1cc(Nc2cc(N3CC(F)(C4CC4)C3)nc(Sc3ccc(NC(=O)CC(F)(F)F)nc3)n2)[nH]n1 [Compound I-21, N-(5-(4-(3-methyl-1H-pyrazol-5-ylamino)-6-(3-cyclopropyl-3-fluoroazetidin-1-yl)pyrimidin-2-ylthio)pyridin-2-yl)-3,3,3-trifluoropropanamide] |  | 28 nM |  | 100 nM | 0.02 µM | 0.44 nM
12 | CCC(=O)Nc1ccc(Sc2nc(Nc3cc(C)n[nH]3)cc(N3CC(O)(C4CCCC4)C3)n2)cc1 [Compound I-3] | 0.004 µM | 34 nM | 0.67 nM | 150 nM | 0.002 µM | 
13 | O=C(Nc1ccc(Sc2nc(Nc3cc(C4CC4)[nH]n3)cc(N3CC(O)(C4CC4)C3)n2)cc1)C1CC1 [Compound I-10] | 0.042 µM | 54 nM |  | 51 nM |  | 0.42 nM
14 | Cc1cc(Nc2cc(N3CC(O)(C4CC4)C3)nc(Sc3ccc(NC(=O)C4CCCC4)cc3)n2)[nH]n1 [Compound I-9, N-(4-((4-(3-methyl-1H-pyrazol-5-ylamino)-6-(3-cyclopropyl-3-hydroxyazetidin-1-yl)pyrimidin-2-yl)sulfanyl)phenyl)cyclopentanecarboxamide] | 0.016 µM | 22 nM | 0.43 nM | 150 nM |  | 
15 | CCC(=O)Nc1ccc(Sc2nc(Nc3cc(C)n[nH]3)cc(N3CC(O)(C4CC4)C3)n2)cc1 [Compound I-2] | 0.026 µM | 26 nM | 0.39 nM | 160 nM | 0.026 µM | 
16 | CCC(=O)Nc1ccc(Sc2nc(Nc3cc(C)n[nH]3)cc(N3CC(O)(C(C)CC)C3)n2)cc1 (stereo not drawn) [Compound I-6] | 0.024 µM | 44 nM |  | 190 nM |  | 0.77 nM

From US8129399B2, “Aminopyrimidines useful as kinase inhibitors” (Vertex Pharmaceuticals Incorporated, priority 2005, dated 2012)
